# Results as given in patent publication US20040167220A1, “Environmentally safe fungicide and bactericide formulations” (priority 2003, published 2004).
# Legend:
# Alternaria solani [1] = settings: preservative used without the acidic pH of the invention
# Botrytis cinerea [2] = settings: preservative used without the acidic pH of the invention
# Fusarium nygamai [3] = settings: preservative used without the acidic pH of the invention
# Alternaria solani [4] = assay: In vitro PDA plate test against fungal plant pathogens; format: cell-based; also: key: 0 - no activity, mycelial growth occurred; Fs - Fungistatic activity; Fd - Fungicidal effect - mycelial growth was completely inhibited
# Botrytis cinerea [5] = assay: as above; format: cell-based
# [6] = test system: Colletotrichum graminicola; assay: as above; format: cell-based; also: key: 0 - no activity, mycelial growth occurred; Fs - Fungistatic activity; Fd - Fungicidal effect - mycelial growth was completely inhibited
# Fusarium moniliforme = assay: as above; format: cell-based; settings: sodium benzoate 5.0 mM, pH adjusted with citric acid; also: key: 0 - no activity, mycelial growth occurred; Fs - Fungistatic activity; Fd - Fungicidal effect - mycelial growth was completely inhibited
# Fusarium nygamai [7] = assay: as above; format: cell-based; settings: sodium benzoate 5.0 mM, pH adjusted with citric acid
# Fusarium proliferatum = assay: as above; format: cell-based
# Rhytisma acerinum = assay: as above; format: cell-based
# Sclerotinia homoeocarpa = assay: as above; format: cell-based; settings: sodium benzoate 5.0 mM, pH adjusted with citric acid
# Sclerotinia sclerotiorum = assay: as above; format: cell-based; settings: sodium benzoate 5.0 mM, pH adjusted with citric acid
# [8] = sodium benzoate 5.0 mM, pH adjusted with citric acid, in PDA
# [9] = potassium sorbate/citric acid formulations, with or without surfactants, in PDA
# [10] = potassium sorbate and citric acid in PDA, examined after 2, 4, 6 days, viability on untreated PDA
# For Activity against Botrytis cinerea in this document: key: 0 - no activity, mycelial growth occurred; Fs - Fungistatic activity; Fd - Fungicidal effect - mycelial growth was completely inhibited.
compound,measurement,setting,value
C/C=C/C=C/C(=O)[O-].[K+] [potassium sorbate],pathogens killed,"plant pathogens; 1 mM (0.0015%), pH 4.1, surfactants added",7 out of 8
same,activity against the broad range of plant pathogens tested,"plant pathogens; 5 mM (0.075% solution), pH 4.1",cidal activity
same,activity against plant pathogens,"plant pathogens; 10 mM (0.15% solution), pH above 7.0",inactive or at best exhibits only static activity
same,number of pathogens with cidal activity,"plant pathogens; down to 1 mM sorbate or lower, pH 4.1",two
same,concentration required to kill Alternaria solani,Alternaria solani [1],greater than 2%
same,concentration required to kill Botrytis cinerea,Botrytis cinerea [2],greater than 2%
same,concentration required to kill Fusarium nygamai,Fusarium nygamai [3],greater than 2%
O=C([O-])c1ccccc1.[Na+] [sodium benzoate],control of the plant pathogens,"plant pathogens; 5 mM (0.072% solution), pH above 7.0",ineffective
same,species tested being killed,"plant pathogens; 5 mM, pH 4.1",10 out of 10
same,species with cidal activity,"plant pathogens; 5 mM, pH 4.6",6 out of 10
"O=C([O-])c1ccccc1.[Na+] [Control C, sodium benzoate]",Activity against Alternaria solani,Alternaria solani [4]; [8],0
same,Activity against Botrytis cinerea,Botrytis cinerea [5]; [8],0
same,Activity against Colletotrichum graminicola,[6]; [8],0
same,Activity against Fusarium moniliforme,Fusarium moniliforme,0
same,Activity against Fusarium nygamai,Fusarium nygamai [7],0
same,Activity against Fusarium proliferatum,Fusarium proliferatum; [8],0
same,Activity against Rhytisma acerinum,Rhytisma acerinum; [8],0
same,Activity against Sclerotinia homoeocarpa,Sclerotinia homoeocarpa,0
same,Activity against Sclerotinia sclerotiorum,Sclerotinia sclerotiorum,0
"C/C=C/C=C/C(=O)[O-].[K+] [Control B, potassium sorbate]",Activity against Alternaria solani,Alternaria solani [4]; [9],0
same,Activity against Botrytis cinerea,Botrytis cinerea [5]; [9],0
same,Activity against Colletotrichum gram.,[6]; [9],0
same,Activity against Fusarium proliferatum,Fusarium proliferatum; [9],0
same,Activity against Rhytisma acerinum,Rhytisma acerinum; [9],0
"C/C=C/C=C/C(=O)[O-].[K+] [Control A, potassium sorbate]",Activity against Alternaria solani,Alternaria solani [4]; [10],0
same,Activity against Botrytis cinerea,Botrytis cinerea [5]; [10],0
same,Activity against Colletotrichum gram.,[6]; [10],0
same,Activity against Fusarium proliferatum,Fusarium proliferatum; [10],0
same,Activity against Rhytisma acerinum,Rhytisma acerinum; [10],0
